In patent publication US20050075375A1 (priority 2003, published 2005):

System: monocistronic NK5.1 HCV replicon in Huh7 cells
Experiment: HCV replicon assay, monocistronic replicon cell line
Type: cell-based, hepatitis C virus
Details: Hepatitis C virus, Huh-7, 72 h; Table 1; monocistronic replicon in Huh7 cells, 3 days incubation, HCV RNA/GAPDH RNA by TaqMan RT-PCR; read-out: Mono EC50 Median
Source text: HCV Replicon Assays (Replicon EC50 (μM))
HCV replication can be measured by a replicon assay such as described by Vrolijk et al, J. Virol. Methods 110:201(2003), which is hereby incorporated in its entirety by reference. The method was implemented as follows.
Monocistronic Replicon Cell Line:
Human hepatocyte Huh7 cells containing the monocistronic NK5.1 replicon were obtained from Ralf Bartenschlager at the University of Mainz, Germany. These cells were maintained under hygromycin selection and passaged when 80-90% confluent.
This cell line contains an autonomously replicating RNA element (replicon) incorporating the non-structural HCV elements necessary for replication, and upon which the survival of the replicon in the cell depends. This replicon contains a single internal ribosome entry site (HCV IRES). Inhibition of any of the critical HCV finctions by a compound leads to loss of the replicon as measured by HCV replicon RNA copy number reduction. The amount of HCV RNA present following a standard incubation with a compound is a measure of the anti-HCV activity of the compound. The assay was conducted by preparing sufficient 96-well plates containing these cells, wherein cells are seeded at 6000 cells/well in a 96-well plate, in 200 μl of final media volume. Cells were then incubated for 24 hours at 37 C., 5% CO2, and 95% humidity before compound was added. Six point half-log concentration response assays were conducted to determine potency/EC50 of Formula I compounds to inhibit HCV replicon replication. The final percent DMSO acceptable in this assay system is 0.6%. Compounds were diluted in media in an appropriate format and 5 μl of each drug dilution is added to each well. Cells were then incubated with compounds for 3 days at 37 C., 5% CO2, and 95% humidity. Following the three day incubation period, plates were washed twice with phosphate buffered saline to remove media and cells were lysed with Qiagen extraction buffer. RNA was extracted and isolated with the Qiagen RNAeasy kit according to the manufacturer's protocol (Qiagen). TaqMan One-Step RT-PCR was used in conjunction with an ABI 7700 Sequence Detector (Applied Biosystems) for the quantitation and analysis of HCV replicon RNA copy number. A GAPDH probe was used for internal normalization. The ratio of HCV RNA to cellular GAPDH RNA was determined and compared to the DMSO-only treated control, and the ratio of HCV RNA/GAPDH RNA was used for an EC50 determination and as a measure of specificity for inhibition of the HCV replicon.

**Q.** For `COc1ccc(-c2ccn(-c3ncc(C(F)(F)F)cc3Cl)n2)c(F)c1` [Compound 47, 3-Chloro-2-[3-(2-fluoro-4-methoxy-phenyl)-pyrazol-1-yl]-5-trifluoromethyl-pyridine], which EC50 is on record?
**A.** 6 µM

**Q.** `COc1ccc(-c2ccnn2-c2ncc(C(F)(F)F)cc2Cl)c(F)c1` [Compound 48, 3-Chloro-2-[5-(2-fluoro-4-methoxy-phenyl)-pyrazol-1-yl]-5-trifluoromethyl-pyridine] was tested. Which EC50 did it give?
**A.** 15 µM

**Q.** For `COc1ccc(-c2ccn(-c3c(Cl)cncc3Cl)n2)c(F)c1` [Compound 49, 3,5-Dichloro-4-[3-(2-fluoro-4-methoxy-phenyl)-pyrazol-1-yl]-pyridine], which EC50 is on record?
**A.** > 32 µM

**Q.** With `COc1ccc(-c2ccnn2-c2c(Cl)cncc2Cl)c(F)c1` [Compound 50, 3,5-Dichloro-4-[5-(2-fluoro-4-methoxy-phenyl)-pyrazol-1-yl]-pyridine] as the compound, how does the EC50 read?
**A.** 5.8 µM

**Q.** Which EC50 does the source give for `COc1ccc(-c2ccn(-c3ncccc3C(F)(F)F)n2)c(F)c1` [Compound 51, 2-[3-(2-Fluoro-4-methoxy-phenyl)-pyrazol-1-yl]-3-trifluoromethyl-pyridine] here?
**A.** 20 µM

**Q.** `COc1ccc(-c2ccnn2-c2ncccc2C(F)(F)F)c(F)c1` [Compound 52, 2-[5-(2-Fluoro-4-methoxy-phenyl)-pyrazol-1-yl]-3-trifluoromethyl-pyridine] was tested. Which EC50 did it give?
**A.** 2.1 µM

**Q.** For `COc1ccc(-c2ccn(-c3ccccn3)n2)c(F)c1` [Compound 53, 2-[3-(2-Fluoro-4-methoxy-phenyl)-pyrazol-1-yl]-pyridine], which EC50 is on record?
**A.** > 32 µM

**Q.** How did the EC50 turn out when `COc1ccc(-c2ccnn2-c2ccccn2)c(F)c1` [Compound 54, 2-[5-(2-Fluoro-4-methoxy-phenyl)-pyrazol-1-yl]-pyridine] was run?
**A.** 2.2 µM

**Q.** `CCCNC(=O)c1cc(-c2ccc(OC)cc2)nn1-c1ccc(Cl)cc1` [Compound 55, 2-(4-Chloro-phenyl)-5-(4-methoxy-phenyl)-2H-pyrazole-3-carboxylic acid propylamide] was tested. Which EC50 did it give?
**A.** 18 µM

**Q.** `CCOC(=O)c1cc(-c2ccc(OC)cc2)nn1-c1ncccc1C(F)(F)F` [Compound 56, 5-(4-Methoxy-phenyl)-2-(3-trifluoromethyl-pyridin-2-yl)-2H-pyrazole-3-carboxylic acid ethyl ester] was tested. Which EC50 did it give?
**A.** > 32 µM

**Q.** With `CCOC(=O)c1cc(-c2ccc(OC)cc2)n(-c2ncccc2C(F)(F)F)n1` [Compound 57, 5-(4-Methoxy-phenyl)-1-(3-trifluoromethyl-pyridin-2-yl)-1H-pyrazole-3-carboxylic acid ethyl ester] as the compound, how does the EC50 read?
**A.** > 32 µM

**Q.** For `COc1ccc(-c2cc(C(=O)O)nn2-c2ncccc2C(F)(F)F)cc1` [Compound 58], which EC50 is on record?
**A.** > 32 µM

**Q.** `CCCNC(=O)c1cc(-c2ccc(OC)cc2)nn1-c1ncccc1C(F)(F)F` [Compound 59, 5-(4-Methoxy-phenyl)-2-(3-trifluoromethyl-pyridin-2-yl)-2H-pyrazole-3-carboxylic acid propylamide] was tested. Which EC50 did it give?
**A.** > 32 µM

**Q.** `CCOC(=O)c1cc(-c2ccc(OC)cc2)nn1-c1ncccc1[N+](=O)[O-]` [Compound 60, 5-(4-Methoxy-phenyl)-2-(3-nitro-pyridin-2-yl)-2H-pyrazole-3-carboxylic acid ethyl ester] was tested. Which EC50 did it give?
**A.** > 32 µM

**Q.** How did the EC50 turn out when `CCOC(=O)c1cc(-c2ccc(OC)cc2)n(-c2ncccc2[N+](=O)[O-])n1` [Compound 61, 5-(4-Methoxy-phenyl)-1-(3-nitro-pyridin-2-yl)-1H-pyrazole-3-carboxylic acid ethyl ester] was run?
**A.** 19 µM

**Q.** For `CCCNC(=O)c1cc(-c2ccc(OC)cc2)nn1-c1ccccn1` [Compound 62], which EC50 is on record?
**A.** > 32 µM

**Q.** Which EC50 does the source give for `COc1ccc(-c2cc(C(=O)O)n(-c3ccccn3)n2)cc1` [Compound 63] here?
**A.** > 32 µM

**Q.** How did the EC50 turn out when `CCOC(=O)c1cc(-c2ccc3ccccc3c2)nn1-c1ccccn1` [Compound 65, 5-Naphthalen-2-yl-2-pyridin-2-yl-2H-pyrazole-3-carboxylic acid ethyl ester] was run?
**A.** > 32 µM

**Q.** How did the EC50 turn out when `CCOC(=O)c1cc(-c2ccc3ccccc3c2)n(-c2ccccn2)n1` [Compound 66, 5-Naphthalen-2-yl-1-pyridin-2-yl-1H-pyrazole-3-carboxylic acid ethyl ester] was run?
**A.** 30 µM

**Q.** `CCOC(=O)c1cc(-c2ccc3ccccc3c2)n(-c2ncccc2C(F)(F)F)n1` [Compound 67, 5-Naphthalen-2-yl-1-(3-trifluoromethyl-pyridin-2-yl)-1H-pyrazole-3-carboxylic acid ethyl ester] was tested. Which EC50 did it give?
**A.** 22 µM

**Q.** For `CCOC(=O)c1cc(-c2ccc3ccccc3c2)nn1-c1ncccc1C(F)(F)F` [Compound 68], which EC50 is on record?
**A.** 12 µM

**Q.** Which EC50 does the source give for `CCOC(=O)c1cc(-c2ccc3ccccc3c2)n(-c2ncccc2[N+](=O)[O-])n1` [Compound 69] here?
**A.** 24 µM

**Q.** For `CCCNC(=O)c1cc(-c2ccc(OC)cc2)nn1-c1ncccc1[N+](=O)[O-]` [Compound 70, 5-(4-Methoxy-phenyl)-2-(3-nitro-pyridin-2-yl)-2H-pyrazole-3-carboxylic acid propylamide], which EC50 is on record?
**A.** > 32 µM

**Q.** With `CCCNC(=O)c1cc(-c2ccc3ccccc3c2)nn1-c1ccccn1` [Compound 71, 5-Naphthalen-2-yl-2-pyridin-2-yl-2H-pyrazole-3-carboxylic acid propylamide] as the compound, how does the EC50 read?
**A.** 21 µM

**Q.** For `CCCNC(=O)c1cc(-c2ccc3ccccc3c2)n(-c2ccccn2)n1` [Compound 72, 5-Naphthalen-2-yl-1-pyridin-2-yl-1H-pyrazole-3-carboxylic acid propylamide], which EC50 is on record?
**A.** > 32 µM

**Q.** How did the EC50 turn out when `O=C(O)c1cc(-c2ccc3ccccc3c2)nn1-c1ccccn1` [Compound 73, 5-Naphthalen-2-yl-2-pyridin-2-yl-2H-pyrazole-3-carboxylic acid] was run?
**A.** > 32 µM

**Q.** For `O=C(O)c1cc(-c2ccc3ccccc3c2)n(-c2ccccn2)n1` [Compound 74, 5-Naphthalen-2-yl-1-pyridin-2-yl-1H-pyrazole-3-carboxylic acid], which EC50 is on record?
**A.** > 32 µM

**Q.** How did the EC50 turn out when `O=C(O)c1cc(-c2ccc3ccccc3c2)n(-c2ncccc2[N+](=O)[O-])n1` [Compound 75] was run?
**A.** > 32 µM

**Q.** How did the EC50 turn out when `CCCNC(=O)c1cc(-c2ccc3ccccc3c2)nn1-c1ncccc1C(F)(F)F` [Compound 76, 5-Naphthalen-2-yl-2-(3-trifluoromethyl-pyridin-2-yl)-2H-pyrazole-3-carboxylic acid propylamide] was run?
**A.** 9.4 µM

**Q.** For `CCCNC(=O)c1cc(-c2ccc3ccccc3c2)n(-c2ncccc2C(F)(F)F)n1` [Compound 77, 5-Naphthalen-2-yl-1-(3-trifluoromethyl-pyridin-2-yl)-1H-pyrazole-3-carboxylic acid propylamide], which EC50 is on record?
**A.** > 32 µM

**Q.** For `O=C(O)c1cc(-c2ccc3ccccc3c2)nn1-c1ncccc1C(F)(F)F` [Compound 78, 5-Naphthalen-2-yl-2-(3-trifluoromethyl-pyridin-2-yl)-2H-pyrazole-3-carboxylic acid], which EC50 is on record?
**A.** > 32 µM

**Q.** With `O=C(O)c1cc(-c2ccc3ccccc3c2)n(-c2ncccc2C(F)(F)F)n1` [Compound 79, 5-Naphthalen-2-yl-1-(3-trifluoromethyl-pyridin-2-yl)-1H-pyrazole-3-carboxylic acid] as the compound, how does the EC50 read?
**A.** > 32 µM

**Q.** Which EC50 does the source give for `COc1ccc(OCc2ccccc2)c(-c2ccn(-c3ncccc3C(F)(F)F)n2)c1` [Compound 80, 2-[3-(2-Benzyloxy-5-methoxy-phenyl)-pyrazol-1-yl]-3-trifluoromethyl-pyridine] here?
**A.** 1.8 µM

**Q.** For `COc1ccc(OCc2ccccc2)c(-c2ccnn2-c2ncccc2C(F)(F)F)c1` [Compound 81, 2-[5-(2-Benzyloxy-5-methoxy-phenyl)-pyrazol-1-yl]-3-trifluoromethyl-pyridine], which EC50 is on record?
**A.** 6.2 µM

**Q.** For `COc1ccc(OCc2ccccc2)c(-c2ccn(-c3ccccn3)n2)c1` [Compound 82, 2-[3-(2-Benzvloxy-5-methoxy-phenvl)-pvrazol-1-yl]-pyridine], which EC50 is on record?
**A.** 4.3 µM

**Q.** `COc1ccc(OCc2ccccc2)c(-c2ccnn2-c2ccccn2)c1` [Compound 83, 2-[5-(2-Benzvloxy-5-methoxy-phenyl)-pvrazol-1-yl]-pyridine] was tested. Which EC50 did it give?
**A.** 31 µM

**Q.** Which EC50 does the source give for `COc1ccc(O)c(-c2ccn(-c3ccccn3)n2)c1` [Compound 84, 4-Methoxy-2-(1-pyridin-2-yl-1H-pyrazol-3-yl)-phenol] here?
**A.** 3.3 µM

**Q.** Which EC50 does the source give for `COc1ccc(O)c(-c2ccnn2-c2ccccn2)c1` [Compound 85, 4-Methoxy-2-(2-pyridin-2-yl-2H-pyrazol-3-yl)-phenol] here?
**A.** > 32 µM

**Q.** For `COc1ccc(O)c(-c2ccn(-c3ncccc3C(F)(F)F)n2)c1` [Compound 86, 4-Methoxy-2-[1-(3-trifluoromethyl-pyridin-2-yl)-1H-pyrazol-3-yl]-phenol], which EC50 is on record?
**A.** 7.8 µM

**Q.** Which EC50 does the source give for `c1ccc(COc2ccc3ccccc3c2-c2ccn(-c3ccccn3)n2)cc1` [Compound 87, 2-[3-(2-Benzyloxy-naphthalen-1-yl)-pyrazol-1-yl]-pyridine] here?
**A.** > 32 µM
